Assays:
Format in all cases: in vivo, mouse
wt and ASMko mice [1] = assay: Sphingomyelin levels by enzymatic assay in tissue extracts after 8-week treatment; conditions: 0.3 mg/kg every three days, 8 weeks
Method: (§1) Treatment started at 7 weeks of age and continued for 8 weeks. PF-04457845 was dissolved in 0.9% NaCl and delivered through oral gavage at a dose of 0.3 mg/kg every three days. We chose this dose based on the studies published by Ahn et al., (J Pharm Exp Ther 2011). Control groups received same volume of 0.9% NaCl without PF-04457845.
Sphingomyelin levels were measured by enzymatic assays in extracts of different brain areas and in liver, spleen, and lung (FIG. 14).

astrocytes = assay: Astrocytes by GFAP immunofluorescence; conditions: 0.3 mg/kg every three days
Method: Representative images of astrocytes stained for GFAP (red) in the cerebellum, hippocampus and cortex of wt and ASMko mice treated or not with PF-04457845. […] Graphs show mean±SEM GFAP intensity in arbitrary units (n=7, **p<0.01, *p<0.05).
as §1
Brain inflammation was determined by analysis of glial cells in the cerebellum, hippocampus and cortex. The number and morphology of microglia was analyzed by immunofluorescence staining with the marker iba-1 (FIG. 16). […] PF-04457845 treatment had no effect in microglia of wt mice. The amount of astrocytes was analyzed by immunofluorescence with the marker GFAP (FIG. 17). […] PF-04457845 treatment had no effect in astrocytes of wt mice (FIG. 17).

wt and ASMko mice [2] = assay: Acute toxicity: SM and ceramide levels in blood
Method: (§2) We divided wt and ASMko mice of 4.5 months of age in six experimental groups: ASMko control (n=3), ASMko low dose (n=3), ASMko intermediate dose (n=3), ASMko high dose (n=3), wt control (n=3), wt high dose (n=3). PF-04457845, provided as powder, was dissolved in 0.9% NaCl and administered to mice through oral gavage. Vehicle groups received same volume of 0.9% NaCl.
After these 48 hours and immediately before termination we collected blood from mice and prepared serum by leaving blood samples 30 minutes for clotting at room temperature and by collecting the supernatant after centrifugation at 6000 rpm for 10 minutes. Following termination, mice were transcardially perfused with phosphate-buffered saline (PBS).
SM and ceramide levels were also monitored in the blood of wt and ASMko mice with and without PF-04457845 treatment as a readout of acute toxicity.

wt and ASMko mice [3] = assay: Acute toxicity: sphingomyelin levels by enzymatic assay in brain areas and liver; conditions: 48 hours
Method: as §2
Doses have been calculated taking into account that used in the study conducted in healthy humans (Li et al., Br J Clin Pharmacol 2011, 73:706-716). […] Estimating an average weight of 60 kg for an adult human the daily dose equals to 0.0083 mg/kg. This dose was very similar to that used in our first 8 week-long treatment with PF-04457845 in ASMko mice, which according to the formulas to calculate equivalence between humans and mice (Nair and Jacob J Basic Clin Pharma 2016, 7:27-31) corresponded to a daily HED dose of 0.0072 mg/kg. For this toxicity study we agreed to take into account the human dose: 0.0083 mg/kg. Formula conversion to mouse dose: HED (mg/kg)=Mouse dose (mg/kg)×mouseKm/Human Km).
Sphingomyelin levels were quantified by enzymatic assay in extracts from different brain areas (hippocampus, cerebellum and cortex) and from liver of wt and ASMko mice treated with PF-04457845 at 0.1 mg/kg, 1 mg/kg and 5 mg/kg or with vehicle (FIG. 26). The results confirmed the remarkable increase of sphingomyelin levels in the vehicle-treated ASMko mice with respect to wt at this advanced stage of the disease (168% in hippocampus, 170% in cerebellum, 139% in cortex and 216% in liver with respect to wt values considered 100%).

Purkinje cells [4] = assay: Lysosomal size by Lamp1 staining of Purkinje cells; conditions: ASMko mice, 0.3 mg/kg every three days
Method: (§3) FIGS. 15A-15D show representative images of Purkinje cells from wildtype and ASMko mice treated or not treated with PF-04457845.
as §1
(§4) Purkinje cell death was analyzed by Calbindin1 staining in the cerebellum of wt and ASMko treated or not with PF-04457845 (FIG. 15A). Loss of Purkinje cells was prominent in non-treated ASMko mice compared to wt. […] PF-04457845 treatment had no effect on Purkinje cell survival in wt mice. We also analyzed Lysosomal size by staining Purkinje cells of the cerebellum for Lamp1 expression in samples from wt and ASMko mice treated or not treated with PF-04457845 (FIG. 15B). Lysosomal size was increased by an average 45% in the non-treated ASMko compared to wt mice consistent with sphingomyelin accumulation in these organelles. This alteration was prevented to a significant extent (35%) in the ASMko mice treated with PF.

anandamide levels = assay: Anandamide levels by mass spectrometry in the hippocampus; conditions: 0.3 mg/kg every three days
Method: FIGS. 18A-18B show hippocampal anandamide and CB1 levels in wt and ASMko mice treated or not treated with PF-04457845. […] Graphs show mean±SEM CB1 intensity in arbitrary units (n=5, *p<0.05).
as §1
PF-04457845 inhibits the enzyme (FAAH) that hydrolyzes the endocannabinoid anandamide, which in turn activates the CB1 receptor leading to neutral sphingomyelinase activation and sphingomyelin hydrolysis. To determine the effects of PF-04457845 treatment in the endocannabinoid system we analyzed anandamide and CB1 levels in the brain of PF-04457845 treated and non-treated mice.

Purkinje cells [5] = assay: Purkinje cell death by Calbindin1 staining in the cerebellum; conditions: 0.3 mg/kg every three days
Method: as §3, §1, §4

wt and ASMko mice [6] = assay: Acute toxicity: H&E staining of brain and liver; conditions: any of the doses
Method: FIGS. 27A-27C show H&E staining in wt and ASMko mice treated or not treated with PF-04457845.
as §2
Brain and liver tissue was stained with H&E to evaluate histopathological features.
In the liver foam cells showing white vacuoles indicative of lipid accumulation were evident in vehicle treated ASMko mice compared to wt (FIG. 28).

[7] = ASMko mice, single dose of 5 mg/kg
[8] = wt mice, single dose of 5 mg/kg

O=C(Nc1cccnn1)N1CCC(=Cc2cccc(Oc3ccc(C(F)(F)F)cn3)c2)CC1 [PF-04457845]
sphingomyelin levels in cerebellum (wt and ASMko mice [1]; ASMko mice): significant reduction of sphingomyelin
sphingomyelin levels in cortex (wt and ASMko mice [1]; ASMko mice): significant reduction of sphingomyelin
sphingomyelin levels in hippocampus (wt and ASMko mice [1]; ASMko mice): significant reduction of sphingomyelin
sphingomyelin levels in liver (wt and ASMko mice [1]; ASMko mice): significant reduction of sphingomyelin
sphingomyelin levels in lung (wt and ASMko mice [1]; ASMko mice): non-statistically significant trend towards a decrease
sphingomyelin levels in spleen (wt and ASMko mice [1]; ASMko mice): significant reduction of sphingomyelin
sphingomyelin levels in tissues (wt and ASMko mice [1]; wt mice): did not alter sphingomyelin levels
GFAP intensity in cerebellum, hippocampus and cortex (astrocytes; ASMko mice): reduced GFAP intensity in all areas but the effect was significant only in the cerebellum
astrocytes (GFAP) (astrocytes; wt mice): no effect
SM levels in blood (wt and ASMko mice [2]; ASMko mice, single doses 0.1, 1, 5 mg/kg (data not shown)): moderate dose-dependent decrease
ceramide levels in blood (wt and ASMko mice [2]; single dose of 0.1 mg/kg (data not shown)): high variability with a tendency to increase
ceramide levels in blood (wt and ASMko mice [2]; single dose of 1 mg/kg (data not shown)): decreased
ceramide levels in blood (wt and ASMko mice [2]; single dose of 5 mg/kg (data not shown)): decreased
sphingomyelin levels in hippocampus (wt and ASMko mice [3]; [7]): high variability
sphingomyelin levels reduced in cerebellum (wt and ASMko mice [3]; [7]): 21%
sphingomyelin levels reduced in cortex (wt and ASMko mice [3]; [7]): 8%
sphingomyelin levels reduced in liver (wt and ASMko mice [3]; [7]): 6%
reduction of sphingomyelin in brain areas and liver (wt and ASMko mice [3]; single dose of 0.1 mg/kg): No statistically significant reduction
reduction of sphingomyelin in brain areas and liver (wt and ASMko mice [3]; single dose of 1 mg/kg): No statistically significant reduction
sphingomyelin levels reduced in cerebellum (wt and ASMko mice [3]; [8]): 17%
sphingomyelin levels reduced in cortex (wt and ASMko mice [3]; [8]): 23%
sphingomyelin levels reduced in hippocampus (wt and ASMko mice [3]; [8]): 13%
sphingomyelin levels reduced in liver (wt and ASMko mice [3]; [8]): 34%
increase of lysosomal size prevented (Lamp1) (Purkinje cells [4]): 35%
increase of anandamide levels in the hippocampus (anandamide levels; ASMko mice): 1.96 fold
increase of anandamide levels in the hippocampus (anandamide levels; wt mice): 2.09 fold
Purkinje cell death (Calbindin1) (Purkinje cells [5]; ASMko mice, cerebellum): prevented cell death in a significant percentage of cells
Purkinje cell survival (Purkinje cells [5]; wt mice): no effect
H&E staining of liver (foam cell pattern) (wt and ASMko mice [6]; ASMko mice): did not significantly alter this pattern
H&E staining of hippocampus, cerebellum and cortex (wt and ASMko mice [6]; wt and ASMko mice): did not cause significant changes in H&E staining

From patent US12485117B2, “Compositions and methods for activating signaling through the CB1 cannabinoid receptor for treating and preventing diseases and disorders characterized by abnormal cellular accumulation of sphingolipids such as sphingomyelin” (Wylder Nation Foundation, priority 2018, dated 2025)
